Results taken from ChEMBL document CHEMBL1136068 (Bioorg Med Chem Lett, 2003).
Active and inactive are the calls of the source. No cut-off for these calls is given here.

Columns and labels:
Format in all cases: functional
Androgen receptor [1] = molecular target: T1, Androgen receptor (Homo sapiens, UniProt P10275); assay: Antagonist activity against Androgen receptor; not active
T1 sequence (P10275 whole entry): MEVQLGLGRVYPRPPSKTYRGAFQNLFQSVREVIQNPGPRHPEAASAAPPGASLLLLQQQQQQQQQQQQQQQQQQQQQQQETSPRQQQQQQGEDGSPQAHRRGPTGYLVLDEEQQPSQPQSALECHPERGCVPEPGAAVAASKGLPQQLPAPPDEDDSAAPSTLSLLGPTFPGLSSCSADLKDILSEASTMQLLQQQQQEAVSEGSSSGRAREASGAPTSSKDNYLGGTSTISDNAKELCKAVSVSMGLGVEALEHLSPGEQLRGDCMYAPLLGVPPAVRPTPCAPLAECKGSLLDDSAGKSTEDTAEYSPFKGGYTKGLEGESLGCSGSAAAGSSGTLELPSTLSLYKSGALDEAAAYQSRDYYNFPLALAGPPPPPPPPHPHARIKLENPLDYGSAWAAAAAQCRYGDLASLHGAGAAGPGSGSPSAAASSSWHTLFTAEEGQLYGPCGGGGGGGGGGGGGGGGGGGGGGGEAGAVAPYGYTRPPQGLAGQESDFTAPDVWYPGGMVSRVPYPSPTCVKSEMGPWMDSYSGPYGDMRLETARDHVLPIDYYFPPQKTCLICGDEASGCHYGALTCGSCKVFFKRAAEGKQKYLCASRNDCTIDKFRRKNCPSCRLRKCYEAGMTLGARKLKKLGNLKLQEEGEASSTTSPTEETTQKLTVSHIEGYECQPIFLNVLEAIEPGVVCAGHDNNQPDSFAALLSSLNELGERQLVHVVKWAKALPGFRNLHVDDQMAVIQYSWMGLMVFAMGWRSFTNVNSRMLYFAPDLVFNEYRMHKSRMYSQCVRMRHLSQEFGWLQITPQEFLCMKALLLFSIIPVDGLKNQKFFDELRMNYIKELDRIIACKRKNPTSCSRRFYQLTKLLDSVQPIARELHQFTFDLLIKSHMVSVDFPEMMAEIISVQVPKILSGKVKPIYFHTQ

[2] = molecular target: T2, Androgen receptor (Homo sapiens) (UniProt P10275); assay: Antagonist efficacy at human androgen (hAR) receptor; not active
T2 sequence (whole entry): T1 sequence (P10275 whole entry)

Androgen receptor [3] = molecular target: T1, Androgen receptor; assay: Antagonist activity against human Androgen receptor
Glucocorticoid receptor = molecular target: T3, Glucocorticoid receptor (Homo sapiens, UniProt P04150); assay: Antagonist activity at glucocorticoid receptor
T3 sequence (P04150 whole entry): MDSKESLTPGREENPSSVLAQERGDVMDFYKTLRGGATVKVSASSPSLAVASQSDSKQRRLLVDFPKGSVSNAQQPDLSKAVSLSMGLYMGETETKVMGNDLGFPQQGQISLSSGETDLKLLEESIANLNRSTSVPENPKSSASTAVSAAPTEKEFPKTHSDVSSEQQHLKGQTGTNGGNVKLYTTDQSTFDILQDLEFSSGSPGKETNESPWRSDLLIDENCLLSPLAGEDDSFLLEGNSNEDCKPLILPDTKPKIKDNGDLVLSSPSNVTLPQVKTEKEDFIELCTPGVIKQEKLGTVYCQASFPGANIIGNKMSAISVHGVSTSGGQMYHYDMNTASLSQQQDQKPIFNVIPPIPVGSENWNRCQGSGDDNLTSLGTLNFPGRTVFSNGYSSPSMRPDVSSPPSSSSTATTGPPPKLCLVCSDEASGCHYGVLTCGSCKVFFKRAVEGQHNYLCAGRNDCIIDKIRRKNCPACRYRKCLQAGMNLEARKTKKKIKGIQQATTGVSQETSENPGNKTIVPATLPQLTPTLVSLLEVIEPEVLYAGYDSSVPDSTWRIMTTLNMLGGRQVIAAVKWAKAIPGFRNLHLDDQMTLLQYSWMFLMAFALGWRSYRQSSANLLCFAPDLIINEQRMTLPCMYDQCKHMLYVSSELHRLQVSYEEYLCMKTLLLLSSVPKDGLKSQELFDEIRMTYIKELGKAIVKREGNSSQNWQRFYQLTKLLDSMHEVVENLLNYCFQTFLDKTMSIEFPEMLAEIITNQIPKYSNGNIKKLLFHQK

Estrogen receptor = Estrogen receptor (Homo sapiens, UniProt Q92731+P03372); assay: Antagonist activity at estrogen (hER) receptor; Efficacy <20% and/or potency >[…] nM
[4] = molecular target: T4, Mineralocorticoid receptor (Homo sapiens) (UniProt P08235); assay: Antagonist activity at mineralocorticoid receptor (hMR); Efficacy <20% and/or potency >[…] nM
T4 sequence (whole entry): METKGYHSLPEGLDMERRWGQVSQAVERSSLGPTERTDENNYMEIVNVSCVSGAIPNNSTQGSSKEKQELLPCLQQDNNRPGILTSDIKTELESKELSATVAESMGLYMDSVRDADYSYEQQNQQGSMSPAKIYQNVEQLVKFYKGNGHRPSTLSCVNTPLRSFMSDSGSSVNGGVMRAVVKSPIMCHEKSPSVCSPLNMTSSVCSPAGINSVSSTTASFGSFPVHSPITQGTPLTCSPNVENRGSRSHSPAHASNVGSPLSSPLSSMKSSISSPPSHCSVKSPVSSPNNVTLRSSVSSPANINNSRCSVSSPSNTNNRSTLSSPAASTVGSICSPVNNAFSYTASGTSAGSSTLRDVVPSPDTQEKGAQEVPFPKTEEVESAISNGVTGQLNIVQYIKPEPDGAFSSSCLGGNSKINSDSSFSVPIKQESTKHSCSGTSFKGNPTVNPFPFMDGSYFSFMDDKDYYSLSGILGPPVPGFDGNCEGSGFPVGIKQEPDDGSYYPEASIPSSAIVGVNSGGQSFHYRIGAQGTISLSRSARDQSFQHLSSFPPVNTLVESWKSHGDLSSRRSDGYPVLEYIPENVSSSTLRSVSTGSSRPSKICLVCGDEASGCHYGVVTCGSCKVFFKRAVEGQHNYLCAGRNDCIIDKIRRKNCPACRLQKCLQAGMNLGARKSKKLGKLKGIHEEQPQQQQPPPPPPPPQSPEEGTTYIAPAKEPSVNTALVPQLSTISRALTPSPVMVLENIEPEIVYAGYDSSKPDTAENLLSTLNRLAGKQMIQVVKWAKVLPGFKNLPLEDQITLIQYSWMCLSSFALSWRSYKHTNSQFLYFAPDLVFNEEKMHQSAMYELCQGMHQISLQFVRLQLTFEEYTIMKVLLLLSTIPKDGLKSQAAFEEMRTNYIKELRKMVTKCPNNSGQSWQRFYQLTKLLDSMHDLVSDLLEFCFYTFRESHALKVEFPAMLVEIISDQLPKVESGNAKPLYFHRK

[5] = molecular target: T4, Mineralocorticoid receptor (Homo sapiens); assay: Antagonist efficacy at mineralocorticoid receptor (hMR); Efficacy <20% and/or potency >[…] nM

Row | SMILES | IC50 (Androgen receptor [1]) | Efficacy [2] | IC50 (Androgen receptor [3]) | IC50 (Glucocorticoid receptor) | Efficacy (Estrogen receptor) | Efficacy [4] | Efficacy [5]
1 | CC(C)=C/C=C1\Oc2ccc(F)cc2-c2ccc3c(c21)C(C)=CC(C)(C)N3 | > 1000 nM | < 20% |  |  |  |  | 
2 | CC/C(C)=C1\Oc2ccc(F)cc2-c2ccc3c(c21)C(C)=CC(C)(C)N3 |  |  | 250 nM | 324 nM | inactive | inactive | inactive
